Read-outs that look alike come from different tables or passages of the source.
What was measured:
[1] = target: T1, CDK4 (Homo sapiens, UniProt P11802); assay: CDK4 percentage degradation in Calu-1 cells (immunoblotting); type: cell-based; conditions: for inhibition at 0.2 µM: read-out: CDK4 Degradation (200 nM)
T1 construct: endogenous in cells; host or cells: Calu-1
Outline: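 Cultured cells were rinsed once in cold PBS and lysed in cold RIPA buffer containing protease and phosphatase inhibitors, with gentle agitation at 4° C. for 30 min. Lysates were centrifuged at 13,000 rpm for 10 min at 4° C., and protein was quantified by BCA. Samples were then separated by SDS-PAGE, detected with ECL, and the CDK4 bands quantified in Image Lab.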

[2] = tested on: cyclin D1; assay: Cyclin D1 percentage degradation in Calu-1 cells (immunoblotting); type: cell-based; conditions: 16 hours
Outline: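 Cells were rinsed once in cold PBS and lysed in cold RIPA buffer containing protease and phosphatase inhibitors, with gentle agitation at 4° C. for 30 min. Lysates were spun at 13,000 rpm for 10 min at 4° C., protein was measured by BCA, and samples were boiled in Laemmli buffer at 99° C. for 5 min before SDS-PAGE immunoblotting.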

T1 sequence (P11802 2-303 limits assumed): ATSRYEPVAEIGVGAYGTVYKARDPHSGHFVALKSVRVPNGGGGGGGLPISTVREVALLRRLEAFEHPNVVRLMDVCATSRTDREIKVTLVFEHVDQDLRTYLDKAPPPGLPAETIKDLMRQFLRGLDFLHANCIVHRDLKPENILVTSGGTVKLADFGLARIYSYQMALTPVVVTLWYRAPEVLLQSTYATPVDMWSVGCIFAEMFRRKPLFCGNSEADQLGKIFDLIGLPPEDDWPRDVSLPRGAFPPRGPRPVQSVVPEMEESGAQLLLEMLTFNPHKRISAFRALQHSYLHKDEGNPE
T1 sequence (P24385 whole entry partner): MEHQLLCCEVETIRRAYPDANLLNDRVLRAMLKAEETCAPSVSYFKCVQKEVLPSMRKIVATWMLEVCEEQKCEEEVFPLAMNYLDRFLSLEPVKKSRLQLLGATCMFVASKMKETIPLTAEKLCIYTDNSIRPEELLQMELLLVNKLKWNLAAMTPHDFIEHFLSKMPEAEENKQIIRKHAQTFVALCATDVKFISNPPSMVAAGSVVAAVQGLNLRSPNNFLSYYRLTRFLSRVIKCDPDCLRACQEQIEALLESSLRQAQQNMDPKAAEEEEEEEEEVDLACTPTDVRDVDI
T1 sequence (Q16531 2-1140 limits assumed, further chain): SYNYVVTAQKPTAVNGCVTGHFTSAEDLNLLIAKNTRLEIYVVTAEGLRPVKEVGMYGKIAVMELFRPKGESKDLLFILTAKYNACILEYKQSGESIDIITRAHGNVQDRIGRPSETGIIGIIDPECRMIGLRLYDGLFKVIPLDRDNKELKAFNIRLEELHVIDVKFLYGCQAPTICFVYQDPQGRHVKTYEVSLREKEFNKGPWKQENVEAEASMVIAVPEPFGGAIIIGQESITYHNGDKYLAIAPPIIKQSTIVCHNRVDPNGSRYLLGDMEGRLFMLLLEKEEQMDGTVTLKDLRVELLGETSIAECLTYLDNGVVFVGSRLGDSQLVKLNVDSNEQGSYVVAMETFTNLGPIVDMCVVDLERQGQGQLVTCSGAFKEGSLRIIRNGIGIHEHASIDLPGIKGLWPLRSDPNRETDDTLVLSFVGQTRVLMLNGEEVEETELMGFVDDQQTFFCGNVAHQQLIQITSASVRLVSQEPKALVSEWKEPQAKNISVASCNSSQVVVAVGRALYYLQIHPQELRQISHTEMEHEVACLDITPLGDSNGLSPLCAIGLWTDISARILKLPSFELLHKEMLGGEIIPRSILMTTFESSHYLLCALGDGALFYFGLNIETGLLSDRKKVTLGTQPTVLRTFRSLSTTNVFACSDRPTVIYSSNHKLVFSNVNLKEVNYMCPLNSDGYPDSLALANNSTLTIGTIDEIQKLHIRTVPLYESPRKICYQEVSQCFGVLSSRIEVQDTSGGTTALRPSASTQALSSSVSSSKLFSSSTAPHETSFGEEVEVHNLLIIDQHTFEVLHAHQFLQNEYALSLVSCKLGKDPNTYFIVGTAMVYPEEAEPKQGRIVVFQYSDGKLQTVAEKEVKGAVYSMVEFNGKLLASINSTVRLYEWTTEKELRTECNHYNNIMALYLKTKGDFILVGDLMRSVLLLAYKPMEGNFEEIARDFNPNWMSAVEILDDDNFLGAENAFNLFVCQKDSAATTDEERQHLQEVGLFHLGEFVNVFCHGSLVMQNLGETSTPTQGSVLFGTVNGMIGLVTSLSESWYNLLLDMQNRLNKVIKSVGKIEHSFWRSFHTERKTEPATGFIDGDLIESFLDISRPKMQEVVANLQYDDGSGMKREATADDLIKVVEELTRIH

| Structure (SMILES) | inhibition at 10 µM ([1]; Calu-1 cells, 10 μM, 16 hours, read-out: CDK4 Degradation (10 μM)) [%] | inhibition at 0.2 µM ([1]; Calu-1 cells, 200 nM, 16 hours) [%] | CyclinD1 Degradation (10 μM) ([2]; 10 μM) | CyclinD1 Degradation (200 nM) [2] | inhibition at 0.2 µM ([1]; Calu-1, 16 h) [%] |
| --- | --- | --- | --- | --- | --- |
| Cc1nc(NC(=O)c2ccccc2NC(=O)CCOCCOCCNC(=O)CN2CCN(c3ccc(Nc4ncc5cc(C(=O)N(C)C)n(C6CCCC6)c5n4)nc3)CC2)sc1C [CPD-295, 7-Cyclopentyl-2-((5-(4-(2-((2-(2-(3-((2-((4,5-dimethylthiazol-2-yl)carbamoyl)phenyl)amino)-3-oxopropoxy)ethoxy)ethyl)amino)-2-oxoethyl)piperazin-1-yl)pyridin-2-yl)amino)-N,N-dimethyl-7H-pyrrolo[2,3-d]pyrimidine-6-carboxamide] | 50 to 80 | – | A (protein percentage degradation >= 80%) | – | – |
| CC(=O)c1c(C)c2cnc(Nc3ccc(N4CCN(CC(=O)NCCNc5cccc(C(=O)Nc6nc(C)c(C)s6)c5C)CC4)cn3)nc2n(C2CCCC2)c1=O [CPD-092, 3-((2-(2-(4-(6-((6-Acetyl-8-cyclopentyl-5-methyl-7-oxo-7,8-dihydropyrido[2,3-d]pyrimidin-2-yl)amino)pyridin-3-yl)piperazin-1-yl)acetamido)ethyl)amino)-N-(4,5-dimethylthiazol-2-yl)-2-methylbenzamide] | – | < 30 | – | D (protein percentage degradation <30%) | – |
| CC(=O)c1c(C)c2cnc(Nc3ccc(N4CCN(C(=O)CNc5ccc(C)c(C(=O)Nc6nc(C)c(C)s6)c5)CC4)cn3)nc2n(C2CCCC2)c1=O [CPD-135, 5-((2-(4-(6-((6-Acetyl-8-cyclopentyl-5-methyl-7-oxo-7,8-dihydropyrido[2,3-d]pyrimidin-2-yl)amino)pyridin-3-yl)piperazin-1-yl)-2-oxoethyl)amino)-N-(4,5-dimethylthiazol-2-yl)-2-methylbenzamide] | – | – | – | D (protein percentage degradation <30%) | < 30 |
| CC(=O)c1c(C)c2cnc(Nc3ccc(N4CCN(CC(=O)NCCOCCOCCC(=O)Nc5cc(N(C)C)ccc5C(=O)Nc5nc(C)c(C)s5)CC4)cn3)nc2n(C2CCCC2)c1=O [CPD-155, 2-(3-(2-(2-(2-(4-(6-((6-Acetyl-8-cyclopentyl-5-methyl-7-oxo-7,8-dihydropyrido[2,3-d]pyrimidin-2-yl)amino)pyridin-3-yl)piperazin-1-yl)acetamido)ethoxy)ethoxy)propanamido)-4-(dimethylamino)-N-(4,5-dimethylthiazol-2-yl)benzamide] | – | 50 to 80 | – | A (protein percentage degradation >=80%) | – |
| CC(=O)c1c(C)c2cnc(Nc3ccc(N4CCN(CC(=O)NCCCCCC(=O)Nc5ccccc5C(=O)Nc5nc(C)c(C)s5)CC4)cn3)nc2n(C2CCCC2)c1=O [CPD-172, 2-(6-(2-(4-(6-((6-Acetyl-8-cyclopentyl-5-methyl-7-oxo-7,8-dihydropyrido[2,3-d]pyrimidin-2-yl)amino)pyridin-3-yl)piperazin-1-yl)acetamido)hexanamido)-N-(4,5-dimethylthiazol-2-yl)benzamide] | – | 30 to 50 | – | D (protein percentage degradation <30%) | – |

The next lines start with results.

| inhibition at 10 µM ([1]; Calu-1 cells, 10 μM, 16 hours, read-out: CDK4 Degradation (10 μM)) [%] | inhibition at 0.2 µM ([1]; Calu-1 cells, 200 nM, 16 hours) [%] | Structure (SMILES) | CyclinD1 Degradation (10 μM) ([2]; 10 μM) | CyclinD1 Degradation (200 nM) [2] | inhibition at 0.2 µM ([1]; Calu-1, 16 h) [%] |
| --- | --- | --- | --- | --- | --- |
| – | 50 to 80 | CC(=O)c1c(C)c2cnc(Nc3ccc(N4CCN(CC(=O)NCCCCNc5cc(C)ccc5C(=O)Nc5ccc(N(C)C)nn5)CC4)cn3)nc2n(C2CCCC2)c1=O [CPD-375, 2-((4-(2-(4-(6-((6-Acetyl-8-cyclopentyl-5-methyl-7-oxo-7,8-dihydropyrido[2,3-d]pyrimidin-2-yl)amino)pyridin-3-yl)piperazin-1-yl)acetamido)butyl)amino)-N-(6-(dimethylamino)pyridazin-3-yl)-4-methylbenzamide] | – | A (protein percentage degradation >=80%) | – |
| – | < 30 | CC(=O)c1c(C)c2cnc(Nc3ccc(N4CCN(CC(=O)NCCCNc5ccc(C)c(C(=O)Nc6nc(C)c(C)s6)c5)CC4)cn3)nc2n(C2CCCC2)c1=O [CPD-087, 5-((3-(2-(4-(6-((6-Acetyl-8-cyclopentyl-5-methyl-7-oxo-7,8-dihydropyrido[2,3-d]pyrimidin-2-yl)amino)pyridin-3-yl)piperazin-1-yl)acetamido)propyl)amino)-N-(4,5-dimethylthiazol-2-yl)-2-methylbenzamide] | – | D (protein percentage degradation <30%) | – |

From patent US20250235543A1, “MODIFIED PROTEINS AND PROTEIN DEGRADERS” (Cullgen (Shanghai), Inc., priority 2021, published 2025)
